# Molecular target: T1, Human IL-17A (Homo sapiens, UniProt Q16552)
# T1 sequence (Q16552 20-155 limits assumed): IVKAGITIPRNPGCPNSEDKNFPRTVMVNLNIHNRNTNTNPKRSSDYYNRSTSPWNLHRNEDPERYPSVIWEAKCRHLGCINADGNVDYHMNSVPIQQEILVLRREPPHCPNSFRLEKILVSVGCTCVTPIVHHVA
# Experiment: IL-17A enzyme-linked immunosorbent assay (competitive ELISA, IL-17A/IL-17Ra receptor-ligand binding)
# Parameters: purchased Sino Biological Inc. 12047-H07B
# Conditions: human IL-17A coated plate, human IL-17Ra, read-out: IC50, inhibitory activity of compounds on human IL-17A
# Summary of the method: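 Competitive ELISA with plates coated with human IL-17A at 0.2 μg/ml, blocked with 5% skim milk. Compound pre-incubated with IL-17A 10 min at 25 °C, then 16 nM IL-17Ra stock added for 30 min. Bound receptor detected by anti-Fc HRP/TMB, A450. IC50 from variable-slope fit of blank-corrected residual activity.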
row,SMILES,IC50 [nM]
1,Cc1[nH]nc2c1-c1cc(F)c(NC(=O)[C@@H](NC(=O)c3ccnn3C(C)C)C(C3CC3)C3CC3)cc1CN(C(C)C(F)(F)F)C(=O)C2 (mixture of isomers) [compound 173],≤ 50
2,"Cc1[nH]nc2c1-c1cc(F)c(NC(=O)[C@@H](NC(=O)c3ccnn3C(C)C3CC3)C(C3CC3)C3CC3)cc1COCC2 (single isomer, unassigned) [compound 41a]",≤ 50
3,"Cc1[nH]nc2c1-c1cc(F)c(NC(=O)[C@@H](NC(=O)c3ccnn3C(C)C3CC3)C(C3CC3)C3CC3)cc1COCC2 (single isomer, unassigned) [compound 41b]",≤ 50
4,"Cc1[nH]nc2c1-c1cc(F)c(NC(=O)[C@@H](NC(=O)c3ccnn3C(C)CF)C(C3CC3)C3CC3)cc1COCC2 (single isomer, unassigned) [compound 42a]",≤ 50
5,"Cc1[nH]nc2c1-c1cc(F)c(NC(=O)[C@@H](NC(=O)c3ccnn3C(C)CF)C(C3CC3)C3CC3)cc1COCC2 (single isomer, unassigned) [compound 42b]",≤ 50
6,"Cc1[nH]nc2c1-c1cc(F)c(NC(=O)[C@@H](NC(=O)c3ccnn3C(C)C)C(C3CC3)C3CC3)cc1CN(C(C)C(F)(F)F)C(=O)C2 (single isomer, unassigned) [compound 186a]",≤ 50
7,"Cc1[nH]nc2c1-c1cnc(NC(=O)[C@@H](NC(=O)c3ccnn3C(C)C3CC3)C(C3CC3)C3CC3)cc1COCC2 (single isomer, unassigned) [compound 188a]",≤ 50
8,"Cc1[nH]nc2c1-c1cnc(NC(=O)[C@@H](NC(=O)c3ccnn3C(C)C3CC3)C(C3CC3)C3CC3)cc1COCC2 (single isomer, unassigned) [compound 188b]",≤ 50
9,"Cc1[nH]nc2c1-c1cnc(NC(=O)[C@@H](NC(=O)c3ccnn3C(C)CF)C(C3CC3)C3CC3)cc1COCC2 (single isomer, unassigned) [compound 189a]",≤ 50
10,"Cc1[nH]nc2c1-c1cnc(NC(=O)[C@@H](NC(=O)c3ccnn3C(C)CF)C(C3CC3)C3CC3)cc1COCC2 (single isomer, unassigned) [compound 189b]",≤ 50
11,Cc1[nH]nc2c1-c1ccc(NC(=O)[C@@H](NC(=O)c3ccnn3C)C(C3CC3)C3CC3)cc1COCC2 [compound 2],≤ 50
12,Cc1[nH]nc2c1-c1cc(F)c(NC(=O)[C@@H](NC(=O)c3ccnn3C(C)C)C(C3CC3)C3CC3)cc1COCC2 [compound 15],≤ 50
13,CCn1nccc1C(=O)N[C@H](C(=O)Nc1cc2c(cc1F)-c1c(n[nH]c1C)CCOC2)C(C1CC1)C1CC1 [compound 16],≤ 50
14,Cc1[nH]nc2c1-c1cc(F)c(NC(=O)[C@@H](NC(=O)c3ccnn3C)C(C3CC3)C3CC3)cc1COCC2 [compound 17],≤ 50
15,Cc1[nH]nc2c1-c1ccc(NC(=O)[C@@H](NC(=O)c3ccnn3C(C)C)C(C3CC3)C3CC3)cc1CN(C)C(=O)C2 [compound 22],≤ 50
16,CCn1nccc1C(=O)N[C@H](C(=O)Nc1ccc2c(c1)CN(C)C(=O)Cc1n[nH]c(C)c1-2)C(C1CC1)C1CC1 [compound 23],≤ 50
17,Cc1[nH]nc2c1-c1ccc(NC(=O)[C@@H](NC(=O)c3ccnn3C(C)C)C(C3CC3)C3CC3)cc1CNC(=O)C2 [compound 27],≤ 50
18,CCn1nccc1C(=O)N[C@H](C(=O)Nc1ccc2c(c1)CNC(=O)Cc1n[nH]c(C)c1-2)C(C1CC1)C1CC1 [compound 28],≤ 50
19,CCn1nccc1C(=O)N[C@H](C(=O)Nc1cc2c(cc1F)-c1c(n[nH]c1C)CCOC2)[C@H]1CC[C@H](C)CC1 [compound 46],≤ 50
20,Cc1[nH]nc2c1-c1cc(F)c(NC(=O)[C@@H](NC(=O)c3ccnn3C(C)C)C3CCCCC3)cc1COCC2 [compound 48],≤ 50
21,[2H]C([2H])([2H])C([2H])(n1nccc1C(=O)N[C@H](C(=O)Nc1ccc2c(c1)COCCc1n[nH]c(C)c1-2)C(C1CC1)C1CC1)C([2H])([2H])[2H] [compound 52],≤ 50
22,[2H]C([2H])([2H])C([2H])(n1nccc1C(=O)N[C@H](C(=O)Nc1cc2c(cn1)-c1c(n[nH]c1C)CCOC2)C(C1CC1)C1CC1)C([2H])([2H])[2H] [compound 54],≤ 50
23,COCCCn1nccc1C(=O)N[C@H](C(=O)Nc1cc2c(cc1F)-c1c(n[nH]c1C)CCOC2)C(C1CC1)C1CC1 [compound 58],≤ 50
24,Cc1[nH]nc2c1-c1cc(F)c(NC(=O)[C@@H](NC(=O)c3ccnn3CC3CC3)C(C3CC3)C3CC3)cc1COCC2 [compound 59],≤ 50
25,Cc1[nH]nc2c1-c1cc(F)c(NC(=O)[C@@H](NC(=O)c3ccnn3CC3CCC3)C(C3CC3)C3CC3)cc1COCC2 [compound 60],≤ 50
26,CSCCn1nccc1C(=O)N[C@H](C(=O)Nc1cc2c(cc1F)-c1c(n[nH]c1C)CCOC2)C(C1CC1)C1CC1 [compound 61],≤ 50
27,CCCn1nccc1C(=O)N[C@H](C(=O)Nc1cc2c(cc1F)-c1c(n[nH]c1C)CCOC2)C(C1CC1)C1CC1 [compound 62],≤ 50

row,SMILES,IC50 [nM]
1,Cc1[nH]nc2c1-c1cc(F)c(NC(=O)[C@@H](NC(=O)c3ccnn3CCC(F)F)C(C3CC3)C3CC3)cc1COCC2 [compound 65],≤ 50
2,[2H]C([2H])(C1CC1)n1nccc1C(=O)N[C@H](C(=O)Nc1cc2c(cc1F)-c1c(n[nH]c1C)CCOC2)C(C1CC1)C1CC1 [compound 76],≤ 50
3,Cc1[nH]nc2c1-c1cc(F)c(NC(=O)[C@@H](NC(=O)c3ccnn3CCC(O)C(F)(F)F)C(C3CC3)C3CC3)cc1COCC2 (stereo partly drawn) [compound 81],≤ 50
4,Cc1[nH]nc2c1-c1cc(F)c(NC(=O)[C@@H](NC(=O)c3ccnn3CCCC(F)(F)F)C(C3CC3)C3CC3)cc1COCC2 [compound 84],≤ 50
5,Cc1[nH]nc2c1-c1cc(F)c(NC(=O)[C@@H](NC(=O)c3ccnn3CCCF)C(C3CC3)C3CC3)cc1COCC2 [compound 86],≤ 50
6,Cc1[nH]nc2c1-c1cc(F)c(NC(=O)[C@@H](NC(=O)c3ccnn3CC(C)(F)F)C(C3CC3)C3CC3)cc1COCC2 [compound 87],≤ 50
7,Cc1[nH]nc2c1-c1cc(F)c(NC(=O)[C@@H](NC(=O)c3ccnn3CCC(F)(F)F)C(C3CC3)C3CC3)cc1COCC2 [compound 88],50 to 150
8,[2H]C([2H])([2H])C([2H])(n1nccc1C(=O)N[C@H](C(=O)Nc1cc2c(cc1F)-c1c(n[nH]c1C)CCOC2)C(C1CC1)C1CC1)C([2H])([2H])[2H] [compound 89],≤ 50
9,[2H]C([2H])([2H])C([2H])([2H])n1nccc1C(=O)N[C@H](C(=O)Nc1cc2c(cc1F)-c1c(n[nH]c1C)CCOC2)C(C1CC1)C1CC1 [compound 90],≤ 50
10,Cc1[nH]nc2c1-c1cc(F)c(NC(=O)[C@@H](NC(=O)c3ccnn3CCOC(C)C)C(C3CC3)C3CC3)cc1COCC2 [compound 98],≤ 50
11,COCC(COC)n1nccc1C(=O)N[C@H](C(=O)Nc1cc2c(cc1F)-c1c(n[nH]c1C)CCOC2)C(C1CC1)C1CC1 [compound 99],50 to 150
12,CCOCCn1nccc1C(=O)N[C@H](C(=O)Nc1cc2c(cc1F)-c1c(n[nH]c1C)CCOC2)C(C1CC1)C1CC1 [compound 100],≤ 50
13,Cc1[nH]nc2c1-c1cc(F)c(NC(=O)[C@@H](NC(=O)c3ccnn3C[C@@H]3C[C@H]3F)C(C3CC3)C3CC3)cc1COCC2 [compound 101],≤ 50
14,Cc1[nH]nc2c1-c1cc(F)c(NC(=O)[C@@H](NC(=O)c3ccnn3CCOC3CC3)C(C3CC3)C3CC3)cc1COCC2 [compound 102],≤ 50
15,Cc1[nH]nc2c1-c1cc(F)c(NC(=O)[C@@H](NC(=O)c3ccnn3CCOCC(F)(F)F)C(C3CC3)C3CC3)cc1COCC2 [compound 104],≤ 50
16,Cc1[nH]nc2c1-c1cc(F)c(NC(=O)[C@@H](NC(=O)c3cnnn3CCOC(F)F)C(C3CC3)C3CC3)cc1COCC2 [compound 108],≤ 50
17,Cc1[nH]nc2c1-c1cc(F)c(NC(=O)[C@@H](NC(=O)c3ccnn3CCOC(C)(C)C)C(C3CC3)C3CC3)cc1COCC2 [compound 113],≤ 50
18,Cc1[nH]nc2c1-c1cc(F)c(NC(=O)[C@@H](NC(=O)c3ccnn3CC3(C#N)CC3)C(C3CC3)C3CC3)cc1COCC2 [compound 114],≤ 50
19,Cc1[nH]nc2c1-c1cc(F)c(NC(=O)[C@@H](NC(=O)c3ccnn3CC3COC3)C(C3CC3)C3CC3)cc1COCC2 [compound 115],≤ 50
20,Cc1[nH]nc2c1-c1cnc(NC(=O)[C@@H](NC(=O)c3ccnn3CCCF)C(C3CC3)C3CC3)cc1COCC2 [compound 124],≤ 50
21,Cc1[nH]nc2c1-c1cc(F)c(NC(=O)[C@@H](NC(=O)c3ccnn3C(C)C)C(C3CC3)C3CC3)cc1CN(CC1CC1)CC2 [compound 166],≤ 50
22,Cc1[nH]nc2c1-c1cc(F)c(NC(=O)[C@@H](NC(=O)c3ccnn3C(C)C)C(C3CC3)C3CC3)cc1CN(C1CCOCC1)C(=O)C2 [compound 167],≤ 50
23,Cc1[nH]nc2c1-c1cc(F)c(NC(=O)[C@@H](NC(=O)c3ccnn3C(C)C)C(C3CC3)C3CC3)cc1CN(C1CCC(F)(F)CC1)C(=O)C2 [compound 168],≤ 50
24,Cc1[nH]nc2c1-c1cc(F)c(NC(=O)[C@@H](NC(=O)c3ccnn3C(C)C)C(C3CC3)C3CC3)cc1CN(C1CC(F)(F)C1)C(=O)C2 [compound 169],≤ 50
25,Cc1[nH]nc2c1-c1cc(F)c(NC(=O)[C@@H](NC(=O)c3ccnn3C(C)C)C(C3CC3)C3CC3)cc1CN(C1CCC1)C(=O)C2 [compound 170],≤ 50
26,Cc1[nH]nc2c1-c1cc(F)c(NC(=O)[C@@H](NC(=O)c3ccnn3C(C)C)C(C3CC3)C3CC3)cc1CN(C1CCOCC1)CC2 [compound 174],≤ 50
27,Cc1[nH]nc2c1-c1cc(F)c(NC(=O)[C@@H](NC(=O)c3ccnn3C(C)C)C(C3CC3)C3CC3)cc1CN(C1CC(F)(F)C1)CC2 [compound 176],≤ 50

# Reference: patent US20260258050A1, “IMMUNOMODULATOR” (HITGEN INC., priority 2023, published 2026)
